# Read-outs that look alike come from different tables or passages of the source.
# Key:
# [1] = Brain pharmacokinetics (unbound, lateral ventricle) by microdialysis after i.v. dose of alkaloid fraction; format: in vivo, rats; conditions: rat brain lateral ventricle, mean ± SD, n = 6; for AUC(0-inf) / AUC(0-t) / MRT inf / half-life / Tmax / Cmax: Sprague-Dawley, brain lateral ventricle microdialysate (unbound), iv; for half-life: read-out: t1/2, λz (converted); for Tmax / Cmax: unbound; for Tmax: i.v. alkaloid fraction 20 mg/kg (NF 9, N-NF 4 mg/kg)
# Description: The microdialysis experiment was conducted as previously described ([Xiao et al., 2016]). Briefly, the rats were anesthetized with an intraperitoneal dose of chloral hydrate 350 mg/kg, and a guide cannula [MAB6 (9).14.IC; MAB, Stockholm, Sweden] was stereotaxically implanted into the lateral ventricle of the brain at the following coordinates relative to bregma: anterior -0.9 mm; lateral +1.5 mm; and lowered 3.1 mm ventral to the dura surface. The guide cannula was secured in place with skull screws and dental cement. The rats were placed in separate cages for at least 3 days to recover. Then, a light surgery was performed as described above.
# The probe was perfused with aCSF containing 5 mM β-CD at a flow rate of 2 μL/min. The brain microdialysis system consisted of a syringe microinfusion pump (CMA 400, CMA Microdialysis, Solna, Sweden), equipment for freely moving animals (CMA 120, CMA Microdialysis, Solna, Sweden), a microdialysis probe (MAB6.14.4; 4 mm, MAB, Stockholm, Sweden) and an automatic sample collector (CMA 470, CMA Microdialysis, Solna, Sweden) set at 4°C. The rat was allowed to equilibrate for 1 h prior to the initiation of sample collection. After blank dialysate samples were collected, the animal received an i.v. dose of the alkaloid fraction at 20 mg/kg by injection through the jugular vein. An 8 min delay was incorporated into the sampling procedure to compensate for the dead volume between the active membrane and the sample collection outlet. The dialysates were collected every 20 min time interval for 2 h and then every 30 min time interval for 4 h. The collected samples were kept at 4°C and analyzed within 24 h.
# (§1) Pharmacokinetic parameters were estimated by the drug concentration in the plasma or brain versus time profiles using WinNonlin software (Pharsight Corporation, Mountain View, CA, United States, Version 2.1). A non-compartmental model was employed to calculate the following parameters: initial plasma concentration (C0) for the i.v. dose, plasma or brain maximum concentration (Cmax), time of maximum concentration (Tmax), terminal elimination half-life (t1/2, λz), area under the plasma concentration versus time curve from time zero to the last sampling time (AUC0-t) and zero to infinity (AUC0-inf), total body clearance (CL), volume of distribution (Vd, λz), and MRT. Absolute bioavailability (F) was calculated based on the plasma AUC0-inf obtained after oral and i.v. administration at the equivalent dose. The analyte concentration (Cf) in the brain lateral ventricle at each time point was calculated from its probe recovery (Rdial) and determined concentration (Cd) in dialysate by the equation, Cf = Cd/Rdial.
# [2] = set-up: method as in earlier work; conditions: ref National Center for Biotechnology Information. PubChem Compound Database (CID = 10146; CID = 12313579); cited from earlier work
# [3] = Plasma pharmacokinetics after single oral dose of lotus leaf alkaloid fraction; format: in vivo, SD rats; conditions: for bioavailability / Tmax / AUC(0-inf) / AUC(0-t) / Cmax / MRT inf / half-life: male; for bioavailability: SD, rat, from plasma AUC0-inf after oral (50 mg/kg) and i.v. (10 mg/kg) alkaloid fraction, read-out: F (absolute oral bioavailability); for Tmax / AUC(0-inf) / AUC(0-t) / Cmax / MRT inf / half-life / CL / Vd, λz: rat plasma, mean ± SD, n = 5; for Tmax: oral alkaloid fraction 50 mg/kg (NF 22.5, N-NF 10 mg/kg); for AUC(0-inf) / AUC(0-t) / Cmax / MRT inf / half-life / CL / Vd, λz: oral alkaloid fraction 50 mg/kg; for half-life: read-out: t1/2, λz (converted)
# Description: (§2) The experimental animals (n = 10), male SD rats (200 ± 20 g), were supplied by the Institute of Laboratory Animal Sciences, Chinese Academy of Medical Sciences and Peking Union Medical College (Beijing, China). The animal experiments were approved by the Animal Ethics Committee at the Institute of Medicinal Plant Development, Chinese Academy of Medical Sciences. The day before the experiment, a light surgery was performed. A polyethylene catheter (0.50-mm ID, 1.00-mm OD, Portex Limited, Hythe, Kent, England) was cannulated into the right jugular vein under anesthesia with an intraperitoneal dose of chloral hydrate at 350 mg/kg. After surgery, the rats were placed individually in cages and allowed to recover for at least 12 h. The rats were fasted overnight with free access to water prior to drug administration.
# (§3) Rats were randomly divided into two groups (five per group). Group 1 was treated with the alkaloid fraction dissolved in 0.03% HCl at a single oral dose of 50 mg/kg by gastric gavage. Group 2 was treated with the alkaloid fraction dissolved in normal saline solution containing 0.03% HCl at an i.v. dose of 10 mg/kg by rapid injection via the catheter. After i.v. administration, 0.2 mL of heparinized saline was injected into the catheter for cleaning.
# (§4) Blood samples (0.2 mL) were collected from the catheter at multiple intervals (0.08, 0.17, 0.25, 0.50, 1, 2, 4, 6, 8, 12, and 16 h) after dosing. Samples were placed into a heparinized centrifuge tube and centrifuged at 3,000 × g and 4°C for 3 min for plasma separation. An aliquot (0.1 mL) of each separated plasma sample was immediately analyzed or stored at -20°C until assay. After each blood collection, 0.2 mL of normal saline containing 20 units of heparin was injected into the catheter to flush the catheter and prevent coagulation.
# (§5) An aliquot of 100 μL of plasma was vortexed with 20 μL of IS (10 μg/mL) and then mixed with 1.5 mL of ethyl acetate for 10 min. Following centrifugation at 8,000 × g for 5 min, the organic phase was completely transferred to a glass tube and concentrated by a gentle nitrogen stream at 40°C. Subsequently, the residue was reconstituted in 150 μL of 80% methanol. Then, the solution was transferred into a small clean tube and centrifuged for 5 min at 16,000 × g. Finally, 10 μL of the supernatant was directly injected into the UPLC system for analysis.
# as §1
# CYP2D6 isoenzyme = tested on: CYP2D6 isoenzyme; set-up: method as in Ye et al., 2014; conditions: competitive manner; ref Ye et al., 2014; cited from earlier work
# [4] = Plasma pharmacokinetics after single i.v. dose of lotus leaf alkaloid fraction; format: in vivo, SD rats; conditions: male, iv, rat plasma, i.v. alkaloid fraction 10 mg/kg, mean ± SD, n = 5; for Vd: read-out: Vd, λz; for half-life: read-out: t1/2, λz (converted)
# Description: as §2, §3, §4, §5, §1
# [5] = rats, cited from earlier work
# [6] = i.v. alkaloid fraction 20 mg/kg
smiles,measurement,setting,value
"COc1cc2c3c(c1OC)-c1ccccc1CC3NCC2 (centres unmarked) [N-NF, N-nornuciferine]",AUC(0-inf),[1]; [6],500 ± 60 ng·h/mL
same,AUC(0-t),[1]; [6],460 ± 70 ng·h/mL
same,MRT inf,[1]; [6],2.98 ± 0.49 h
same,half-life,[1]; [6],1.39 ± 0.68 h
same,Tmax,[1],1.22 ± 0.27 h
same,Cmax,[1]; [6],160 ± 30 ng/mL
same,CL/F,[1]; [6],135 ± 16.7 mL/min/kg
same,LogP,[2],3
same,bioavailability,[3],79.9%
same,Tmax,[3],1.65 ± 0.78 h
same,AUC(0-inf),[3],3400 ± 700 ng·h/mL
same,AUC(0-t),[3],3320 ± 670 ng·h/mL
same,Cmax,[3],570 ± 100 ng/mL
same,MRT inf,[3],4.71 ± 0.72 h
same,half-life,[3],2.94 ± 0.4 h
same,CL,[3],40.7 ± 9.33 mL/min/kg
same,"Vd, λz",[3],10.34 ± 2.64 L/kg
same,inhibition of CYP2D6 isoenzyme activity,CYP2D6 isoenzyme,significantly inhibit
same,AUC(0-inf),[4],850 ± 280 ng·h/mL
same,AUC(0-t),[4],740 ± 200 ng·h/mL
same,C0,[4],690 ± 560 ng/mL
same,MRT inf,[4],4.94 ± 1.83 h
same,clearance,[4],43.5 mL/min/kg
same,Vd,[4],15.2 ± 2.17 L/kg
same,half-life,[4],3.84 ± 1.27 h
"COc1cc2c3c(c1OC)-c1ccccc1C[C@H]3N(C)CC2 [NF, nuciferine]",AUC(0-inf),[1]; [6],830 ± 130 ng·h/mL
same,AUC(0-t),[1]; [6],780 ± 130 ng·h/mL
same,MRT inf,[1]; [6],2.46 ± 0.35 h
same,half-life,[1]; [6],1.24 ± 0.33 h
same,Tmax,[1],0.89 ± 0.17 h
same,Cmax,[1]; [6],320 ± 70 ng/mL
same,CL/F,[1]; [6],184.7 ± 30 mL/min/kg
same,"Vd, λz/F",[1]; [6],19.78 ± 5.79 L/kg
same,LogP,[2],3.4
same,oral bioavailability,"[5]; oral administration of pure NF, LC-MS/MS, ref Xie et al., 2010",69.56%
same,oral bioavailability,"[5]; pure NF, ref Gu et al., 2014",3.9%
same,bioavailability,[3],58.1%
same,Tmax,[3],0.9 ± 0.72 h
same,AUC(0-inf),[3],6200 ± 1330 ng·h/mL
same,AUC(0-t),[3],6130 ± 1350 ng·h/mL
same,Cmax,[3],1710 ± 450 ng/mL
same,MRT inf,[3],3.35 ± 0.8 h
same,half-life,[3],2.48 ± 0.66 h
same,CL,[3],36.5 ± 7.5 mL/min/kg
same,"Vd, λz",[3],7.87 ± 2.84 L/kg
same,inhibition of CYP2D6 isoenzyme activity,CYP2D6 isoenzyme,significantly inhibit
same,AUC(0-inf),[4],2130 ± 400 ng·h/mL
same,AUC(0-t),[4],2090 ± 380 ng·h/mL
same,C0,[4],2580 ± 890 ng/mL
same,MRT inf,[4],2.07 ± 0.74 h
same,clearance,[4],35.8 mL/min/kg
same,Vd,[4],9.48 ± 3.17 L/kg
same,half-life,[4],2.09 ± 0.64 h

# Source: article PMC6123365, “Pharmacokinetics of Nuciferine and N-Nornuciferine, Two Major Alkaloids From Nelumbo nucifera Leaves, in Rat Plasma and the Brain” (Frontiers in Pharmacology, 2018)
